# Patent US10774051B2, “6-membered heterocyclic derivatives and pharmaceutical composition comprising the same” (Shionogi & Co., Ltd., priority 2015, dated 2020)
# Target: human P2X7 receptor (Homo sapiens, UniProt Q99572, R270H/Y155H)
# Assay: Evaluation of human P2X7 receptor inhibitory activity (Yo-Pro uptake, BzATP stimulation, FLIPR TETRA)
# Assay type: cell-based
# Conditions: 1321N1 cells stably expressing human P2X7 receptor; BzATP stimulation, Yo-Pro uptake; read-out: IC50 (antagonistic activity for the human P2X7 receptor)
# Method: Stably expressing cell line (1321N1 cell transfected with the human P2X7 receptor gene (GenBank accession number NM_002562.5 including T606C and G952A SNP)) was used. The cells were seeded in a 384-well microtiter plate at a concentration of 8000 cells/well and cultured in the medium (10% fetal bovine serum, 25 mM HEPES, 1% penicillin and streptomycin in DMEM) for one day at 37° C. under 5% carbon dioxide atmosphere. After replacing with 20 μL of the HBSS buffer (20 mM HEPES, 55.6 mM D-glucose, 1×HBSS(−), pH7.4-7.5), 15 μL of 17.3 μM Yo-Pro solution in the HBSS buffer was added. The plate was placed in high-throughput cellular screening system FLIPR TETRA (Molecullar Devices, LLC.) and 15 μL of 130 μM BzATP solution in the HBSS buffer was added. Measurement of fluorescence intensity by FLIPR TETRA was started. After eight minutes, 15 μL of DMSO solutions containing different concentrations of the compound of the present invention as prepared by dilution with the HBSS buffer were dispensed to each well through the built-in automatic dispenser, and the measurement of fluorescence intensity was continued for 20 minutes. […] Changing values of fluorescence intensity by the compound of the present invention were calculated by difference between maximum and minimum fluorescence intensity for 20 minutes. Inhibition ratios (%) were calculated from the following equation:
# [formula] IC50 was calculated using logistic approximation.
row,Compound,IC50 [nM]
1,COc1cn(Cc2cccc(Cl)c2)c(Nc2cccc3[nH]c(C)cc23)nc1=O [Compound I-0487],25
2,Cc1c(Cl)cccc1Nc1nc(=O)c(C(=O)NC2CCOCC2)cn1Cc1ccccc1 [Compound I-0019],49
3,Cc1cc(C)c(Nc2nc(=O)c(C(=O)O)cn2Cc2ccccc2)cc1C [Compound I-0205],91
4,Cc1cc(C)c(Nc2nc(=O)c(C(N)=O)cn2Cc2ccccc2)cc1C [Compound I-0218],19

# Same assay, conditions: 1321N1 cells stably expressing human P2X7 receptor; BzATP stimulation, Yo-Pro uptake; read-out: IC50 (antagonistic activity for the human P2X7 receptor), class symbol
row,Compound,IC50 [nM]
1,COc1cc(Nc2nc(=O)c(OC)cn2Cc2ccccc2)c(C)cc1Cl [Compound I-0473],< 10
2,CCc1ccc(Cl)cc1Nc1nc(=O)c(OC)cn1Cc1ccc(F)c(Cl)c1 [Compound I-0389],< 10
3,COc1c(C)ccc(Nc2nc(=O)c(OC)cn2Cc2ccc(F)c(F)c2)c1C [Compound I-0517],< 10
4,COc1cn(Cc2ccc(F)cc2F)c(Nc2cccc(Cl)c2C)nc1=O [Compound I-0329],10 to 100
5,COc1cn(Cc2ccccc2OC(F)(F)F)c(Nc2cccc(Cl)c2C)nc1=O [Compound I-0303],100 to 500
6,COc1cn(Cc2cc(F)cc(F)c2)c(Nc2cc3sc(C)nc3cc2C)nc1=O [Compound I-0553],10 to 100
7,COc1cn(Cc2ccccc2)c(Nc2cc(C(F)(F)F)ccc2C)nc1=O [Compound I-0097],100 to 500
8,COc1cn(Cc2cc(C)cc(F)c2)c(Nc2cccc(Cl)c2C)nc1=O [Compound I-0478],< 10
9,Cc1ccccc1Cn1cc(O)c(=O)nc1Nc1cccc(C(F)(F)F)c1Cl [Compound I-0015],500 to 1000
10,CCc1cc(OC)c(OC)cc1Nc1nc(=O)c(F)cn1Cc1ccc(F)c(Cl)c1 [Compound I-0268],< 10
11,COc1cn(Cc2cc(F)cc(F)c2)c(Nc2cc(C)c(OC(F)F)cc2C)nc1=O [Compound I-0355],< 10
12,Cc1c(Cl)cccc1Nc1nc(=O)c(C(F)(F)F)cn1Cc1ccccc1 [Compound I-0216],100 to 500
13,COc1cn(Cc2cccc(F)c2)c(Nc2cccc(Cl)c2C)nc1=O [Compound I-0039],10 to 100
14,COc1cn(Cc2ccccc2)c(Nc2ccccc2C(F)(F)F)nc1=O [Compound I-0089],500 to 1000
15,COc1cn(Cc2ccccc2)c(Nc2cccc(C)c2C)nc1=O [Compound I-0095],10 to 100
16,COc1cn(Cc2ccc(F)c(Cl)c2)c(Nc2cc(-c3nnco3)ccc2C)nc1=O [Compound I-0379],< 10
17,COc1cn(Cc2ccccc2Cl)c(Nc2cccc(Cl)c2C)nc1=O [Compound I-0125],10 to 100
18,COc1cn(Cc2cc(C)cc(C)c2)c(Nc2cccc(Cl)c2C)nc1=O [Compound I-0521],500 to 1000
19,CCc1c(Nc2nc(=O)c(OC)cn2Cc2ccccc2)cc(OC)cc1OC [Compound I-0361],< 10
20,COc1cn(Cc2cc(F)ccc2F)c(Nc2cccc(Cl)c2C)nc1=O [Compound I-0328],10 to 100
21,CCOc1cc(C)c(Nc2nc(=O)c(OC)cn2Cc2ccc(F)c(F)c2)cc1C [Compound I-0260],< 10
22,Cc1cccc(Nc2nc(=O)c(F)cn2Cc2ccc(F)cc2)c1C [Compound I-0139],< 10
23,COc1cc(C)c(Nc2nc(=O)c(Cl)cn2Cc2ccc(F)c(Cl)c2)cc1OC [Compound I-0345],< 10
24,CCc1ccccc1Nc1nc(=O)c(F)cn1Cc1cccc(Cl)c1 [Compound I-0223],10 to 100
25,COc1cc(C)c(Nc2nc(=O)c(OC)cn2Cc2ccccc2)cc1C [Compound I-0220],< 10
26,CCc1c(Cl)cccc1Nc1nc(=O)c(OC)cn1Cc1ccccc1 [Compound I-0215],< 10
27,COc1cn(Cc2cccc(F)c2F)c(Nc2cccc(Cl)c2C)nc1=O [Compound I-0286],10 to 100

# Same assay, conditions: antagonistic activity for the human P2X7 receptor; read-out: IC50
row,Compound,IC50 [nM]
1,CCOc1ccc(Nc2nc(=O)c(OC)cn2Cc2cc(F)c(F)c(F)c2)c(C)c1 [Compound I-0725],< 10
2,COc1cn(Cc2ccc(F)c(F)c2)c(Nc2cc(OC(F)F)c(C)cc2C)nc1=O [Compound I-0878],< 10
3,Cc1nc2cc(C)c(Nc3nc(=O)cnn3Cc3cc(F)c(F)c(F)c3)cc2s1 [Compound I-1284],< 10
4,CCOc1cc(Nc2nc(=O)c(OC)cn2Cc2ccc(F)c(Cl)c2)c(C)cc1F [Compound I-0919],10 to 100
5,CCOc1cc(Nc2nc(=O)c(F)cn2Cc2ccc(F)c(Cl)c2)c(C)cc1F [Compound I-1031],< 10
6,Cc1ccccc1Nc1nc(=O)c(F)cn1Cc1cc(F)c(F)c(F)c1 [Compound I-1082],< 10
7,C#Cc1cc(Nc2nc(=O)c(OC)cn2Cc2ccc(F)c(Cl)c2)c(C)cc1F [Compound I-0916],10 to 100
8,COc1cc(C)c(Nc2nc(=O)c(Cl)nn2Cc2cc(F)c(F)c(F)c2)cc1OC [Compound I-1264],< 10
9,COc1cn(Cc2ccccc2)c(Nc2cc(-c3cnccn3)ccc2C)nc1=O [Compound I-0663],10 to 100
10,COCc1cn(Cc2cc(F)c(F)c(F)c2)c(Nc2cc(C)c(OC)cc2C)nc1=O [Compound I-1156],< 10
11,COc1cc(C)c(Nc2cc(=O)c(OC)cn2Cc2ccc(F)c(Cl)c2)cc1C [Compound I-0954],10 to 100
12,CCc1cc(OC)c(OC)cc1Nc1nc(=O)c(OC)cn1Cc1cc(F)c(F)c(F)c1 [Compound I-0908],< 10
13,COc1ncccc1-c1ccc(C)c(Nc2nc(=O)c(OC)cn2Cc2cc(F)cc(F)c2)c1 [Compound I-0831],< 10
14,Cc1cc(C)c(Nc2nc(=O)c(F)cn2Cc2cc(F)cc(F)c2)cc1CO [Compound I-1111],< 10
15,COc1cn(Cc2ccc(F)c(Cl)c2)c(Nc2cc(-c3cnccn3)ccc2C)nc1=O [Compound I-0664],< 10
16,COc1ccc(Nc2nc(=O)c(F)cn2Cc2cc(F)cc(F)c2)c(C)n1 [Compound I-1037],10 to 100
17,CCc1ccc(Br)cc1Nc1nc(=O)c(OC)cn1Cc1ccccc1 [Compound I-0621],< 10
18,COC(=O)/C=C/c1ccc(C)c(Nc2nc(=O)c(OC)cn2Cc2cc(F)c(F)c(F)c2)c1 [Compound I-1079],10 to 100
19,COc1cc(C)cc(Nc2nc(=O)c(OC)cn2Cc2cc(F)c(F)c(F)c2)c1C [Compound I-0601],< 10
20,Cc1nc2cc(C)c(Nc3nc(=O)c(F)cn3Cc3cc(F)c(F)c(F)c3)cc2o1 [Compound I-1183],< 10
21,COc1cn(Cc2cc(F)cc(F)c2)c(Nc2cc(OC(F)F)ccc2C)nc1=O [Compound I-0874],10 to 100

row,Compound,IC50 [nM]
1,COc1cn(Cc2ccc(F)c(Cl)c2)c(Nc2cc(-c3ccc(C)o3)ccc2C)nc1=O [Compound I-0659],10 to 100
2,Cc1ccc(-c2cccn(C)c2=O)cc1Nc1nc(=O)c(F)cn1Cc1cc(F)c(F)c(F)c1 [Compound I-1221],< 10
3,C=C(C)c1ccc(C)c(Nc2nc(=O)c(OC)cn2Cc2ccc(F)c(Cl)c2)c1 [Compound I-0723],10 to 100
4,COc1cn(Cc2ccc(F)c(F)c2)c(Nc2cccc3c(=O)n(C)ccc23)nc1=O [Compound I-0903],10 to 100
5,CCOc1ccc(Cl)c(Nc2nc(=O)c(F)cn2Cc2cc(F)c(F)c(F)c2)c1 [Compound I-1217],< 10
6,COc1cc(Nc2nc(=O)c(OC)cn2Cc2cc(F)c(F)c(F)c2)c(C)cc1F [Compound I-0863],< 10
7,COc1ccc(Nc2nc(=O)c(F)cn2Cc2cc(F)c(F)c(F)c2)c(C)c1F [Compound I-1245],< 10
8,COc1ccc(Nc2nc(=O)cc(C)n2Cc2cc(F)c(F)c(F)c2)c(C)c1 [Compound I-1167],< 10
9,COc1cn(Cc2cc(F)cc(Cl)c2)c(Nc2ccc(OC(F)F)cc2C)nc1=O [Compound I-0613],10 to 100
10,CON=c1nc(Nc2cc3sc(C)nc3cc2C)n(Cc2cc(F)c(F)c(F)c2)cc1F [Compound I-1291],100 to 500
11,COc1cn(Cc2ccccc2)c(Nc2cc(F)c(Cl)cc2C)nc1=O [Compound I-0886],10 to 100
12,COc1cn(Cc2ccccc2)c(Nc2ccc(N(C)C)cc2C)nc1=O [Compound I-0622],10 to 100
13,Cc1cc(OC(F)F)ccc1Nc1nc(=O)c(F)cn1Cc1cc(F)cc(F)c1 [Compound I-1064],10 to 100
14,COc1cn(Cc2ccc(F)c(Cl)c2)c(Nc2cc(N3CCCC3)ccc2C)nc1=O [Compound I-0884],10 to 100
15,COc1cn(Cc2ccc(F)c(F)c2)c(Nc2cc(S(C)(=O)=O)c(C)cc2C)nc1=O [Compound I-0605],10 to 100
16,COc1cn(Cc2ccc(F)c(Cl)c2)c(Nc2cc(OC(F)(F)F)ccc2C)nc1=O [Compound I-0692],10 to 100
17,COc1cc(C)c(C)c(Nc2nc(=O)c(F)cn2Cc2cc(F)cc(F)c2)c1 [Compound I-1233],< 10
18,CCOc1cc(Nc2nc(=O)c(OC)cn2Cc2cccc(Cl)c2)c(C)cc1C [Compound I-0791],< 10
19,CCc1cc2c(cc1Nc1nc(=O)c(OC)cn1Cc1ccc(F)c(Cl)c1)OC(F)(F)O2 [Compound I-0730],10 to 100
20,Cc1cc(CO)ccc1Nc1nc(=O)c(F)cn1Cc1cc(F)c(F)c(F)c1 [Compound I-1236],< 10
